In PMC8744835, “Sterically Hindered Quaternary Phosphonium Salts (QPSs): Antimicrobial Activity and Hemolytic and Cytotoxic Properties” (International Journal of Molecular Sciences, 2021):

Experiments:
S. aureus 209 P = test: Bactericidal properties of coated plastic samples; type: cell-based, Staphylococcus aureus; settings: for CFU/cm^2, Nylon: Nylon plastic
Experimental: The plastic samples, which were 10 mm × 10 mm × 2 mm, were preliminary sterilized and placed into an ethanolic solution of 12a for 1 min. Then, the studied and control (without coating) samples were immersed in bacterial suspensions with a known concentration of bacteria (10^5–10^8 bacteria/mL) for 24 h, and the number of viable micro-organisms was then estimated.
The plastic samples, which were 10 mm × 10 mm × 2 mm plates, were sterilized in a medical autoclave, HG-50 (Hirayama, Japan), at 121 °C for 20 min. Then, each sample was immersed in an ethanolic solution of compound 12a at concentrations of 0.01 and 0.001% for 1 min and air dried. After treatment, the plastic samples were placed in 24-well plates with 1 sample/well. Then, 1 mL of S. aureus 209 P suspension (10^5 bacteria/mL) was added to each well. The plastic control samples were not treated with compound 12a. The culture of Staphylococcus aureus 209 P was grown for a day at 37 °C in Mueller–Hinton Broth 2. Active daily growing cultures were diluted in physiological saline (NaCl 9.0 g/L) to a concentration of 10^5 bacteria/mL and then distributed into 25-well plates containing 1 cm^2 of coating/well, with the exception of an uncoated control well. After a 24-h incubation period at 37 °C, dilution series were performed for each treatment, and 100 μL volumes of 3 dilutions were plated on sterile Mueller–Hinton agar. After 24 h, the number of colonies on each plate was counted to obtain the corresponding concentration of live bacteria.

P. aeruginosa = test: Zone-of-inhibition test of coated PC+ plastic sample; type: cell-based, Pseudomonas aeruginosa; settings: PC+ sample immersed 1 min in 1% solution of 12a in ethanol, 37 °C 24 h
Experimental: The inhibition-zone test is a quick and qualitative way to measure the ability of an antimicrobial agent to suppress microbial growth. The sensitivity of the method is quite high and even a small amount of residual biocide in a model system can be detected. […] In this experiment, we used cultures of the bacteria P. aeruginosa and S. aureus. First, the microbial suspension was spread on a sterile agar plate. Then, a plastic sample (PC+), which was preliminarily immersed for 1 min in a 1% solution of compound 12a in ethanol, was placed in the center of the Petri dish with agar. During the incubation period, the inoculum bacteria can only grow where is no antimicrobial agent. If the active agent is washed out of the sample into the environment (in this case, agar), bacterial growth in the area around the sample is suppressed. The width of this area is determined by the diffusion of the active compound in the vicinity. […] From the results obtained, it is clear that a relatively stable surface coating was achieved using a simple experimental procedure.
This sample was tested for possible release of the active compound. Tests were performed on a culture of Gram-negative bacteria P. aeruginosa and Gram-positive bacteria S. aureus. […] Then, Petri dishes were placed in an incubator at 37 °C for 24 h, and the presence of inhibition zones was evaluated.

[1] = test system: methicillin-resistant S. aureus MRSA-1; test: Antimicrobial activity, serial dilution technique in Mueller–Hinton Broth 2; type: cell-based, Staphylococcus aureus; settings: - means non-active
How it was run: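 Antimicrobial activity against methicillin-susceptible Staphylococcus aureus MRSA-1, a hospital isolate from a chronic tonsillitis patient that is resistant to fluoroquinolones and beta-lactams, was determined by serial dilution in Mueller–Hinton Broth 2. The bacterial load was 3.0 × 10^5 cfu/mL, incubation was at 37 °C, and growth was recorded every 24 h for 5 days.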

[2] = test system: methicillin-resistant S. aureus MRSA-2; test: as above; type: cell-based, Staphylococcus aureus; settings: - means non-active
How it was run: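 Antimicrobial activity against methicillin-susceptible Staphylococcus aureus MRSA-2, a beta-lactam-resistant clinical isolate from a sinusitis patient at the Republican Clinical Hospital (Kazan), was assessed by serial dilution in Mueller–Hinton Broth 2. The inoculum was 3.0 × 10^5 cfu/mL. Cultures were incubated at 37 °C and read every 24 h for 5 days, in three repeat experiments.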

[3] = test system: Escherichia coli ATCC 25922; test: as above; type: cell-based; settings: Escherichia coli, ATCC25922, Ec; average of three ± SD; - means non-active; read-out: Minimum Inhibitory Concentration (MIC), Ec
How it was run: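 Compounds were serially diluted in Mueller–Hinton Broth 2 and inoculated at 3.0 × 10^5 cfu/mL. Cultures were then incubated at 37 °C with growth recorded daily for 5 days. The MIC was taken as the minimum concentration inhibiting growth, from three experiments.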

[4] = test system: Pseudomonas aeruginosa ATCC 9027; test: as above; type: cell-based; settings: Pseudomonas aeruginosa, ATCC9027, Pa, average of three ± SD, - means non-active
[5] = test system: Enterococcus faecalis ATCC 2921; test: as above; type: cell-based; settings: Ef; average of three ± SD; - means non-active
How it was run: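 Antibacterial activity against Enterococcus faecalis ATCC 2921 was assessed by serial dilution in Mueller–Hinton Broth 2 with a bacterial load of 3.0 × 10^5 cfu/mL. Cultures were incubated at 37 °C, with growth recorded every 24 h for 5 days, and the experiment was performed three times.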

[6] = test system: Bacillus cereus ATCC 10702 NCTC 8035; test: as above; type: cell-based; settings: Bacillus cereus, Bc, average of three ± SD, - means non-active
How it was run: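 Antibacterial activity against Bacillus cereus ATCC 10702 NCTC 8035 was measured by serial dilution in Mueller–Hinton Broth 2 at a bacterial load of 3.0 × 10^5 cfu/mL. Cultures were kept at 37 °C and growth was read every 24 h for 5 days. The experiment was done three times, and MIC and bactericidal concentrations were determined.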

[7] = test system: Staphylococcus aureus ATCC 6538P FDA 209P; test: as above; type: cell-based; settings: Staphylococcus aureus, Sa, average of three ± SD, - means non-active
How it was run: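 Antimicrobial activity against Staphylococcus aureus ATCC 6538P FDA 209P was measured by serial dilution in Mueller–Hinton Broth 2 at a bacterial load of 3.0 × 10^5 cfu/mL. Cultures were incubated at 37 °C, growth was recorded every 24 h for 5 days, and the experiment was done three times.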

`CCCCCCCCCCCC[P+](C(C)(C)C)(C(C)(C)C)C(C)(C)C` [Compound 12a, tri-tert-butyl(n-dodecyl)phosphonium] was tested, and the “bacterial growth on coated plastic” value (S. aureus 209 P; 12a at a concentration of 0.01%, ABS, PLA natural and PETG plastics) was “complete absence of bacterial growth”, the “CFU/cm^2, ABS” value (S. aureus 209 P; ABS plastic, 12a 0.001%, 24 h incubation with 10^5 S. aureus 209 P) was 2.5 × 10^3 CFU/cm^2 and the “CFU/cm^2, Nylon” value (S. aureus 209 P; 12a 0.001%, 24 h incubation with 10^5 S. aureus 209 P) was 3.2 × 10^4 CFU/cm^2. The “CFU/cm^2, Nylon” value (S. aureus 209 P; 12a 0.01%, 24 h incubation with 10^5 S. aureus 209 P) was 2.0 × 10^2 CFU/cm^2, the “CFU/cm^2, PC+” value (S. aureus 209 P; PC+ plastic, 12a 0.001%, 24 h incubation with 10^5 S. aureus 209 P) was 1.2 × 10^4 CFU/cm^2 and the “CFU/cm^2, PETG” value (S. aureus 209 P; PETG plastic, 12a 0.001%, 24 h incubation with 10^5 S. aureus 209 P) was 1.8 × 10^3 CFU/cm^2. The “decrease of bacterial cell concentration compared to the control” value (S. aureus 209 P; PETG, 12a 0.001%) was 27 times, the “CFU/cm^2, PLA Natural” value (S. aureus 209 P; PLA Natural plastic, 12a 0.001%, 24 h incubation with 10^5 S. aureus 209 P) was 5.0 × 10^3 CFU/cm^2 and the “CFU/cm^2, PLA+” value (S. aureus 209 P; PLA+ plastic, 12a 0.001%, 24 h incubation with 10^5 S. aureus 209 P) was 1.6 × 10^4 CFU/cm^2. For the same compound, the zone of inhibition (P. aeruginosa) was “no zones of inhibition”, the “Minimum Inhibitory Concentration (MIC), MRSA-1” value ([1]; MRSA-1 (resistant to fluoroquinolones and beta-lactams)) was 0.5 ± 0.03 µg/mL and the MBC ([1]; Staphylococcus aureus, MRSA, MRSA-1, read-out: Minimum Bactericidal and Fungicidal Concentration (MBC, MFC), MRSA-1) was 0.5 ± 0.04 µg/mL. For the same compound, the “Minimum Bactericidal and Fungicidal Concentration (MBC, MFC), MRSA-2” value ([2]; MRSA-2) was 7.8 ± 0.6 µg/mL, the MIC ([2]; Staphylococcus aureus, MRSA, MRSA-2 (resistant to beta-lactams), read-out: Minimum Inhibitory Concentration (MIC), MRSA-2) was 0.5 ± 0.03 µg/mL and the MIC [3] was 7.8 ± 0.6 µg/mL. For the same compound, the MBC ([4]; read-out: Minimum Bactericidal and Fungicidal Concentration (MBC, MFC), Pa) was 125 ± 11 µg/mL, the MIC ([4]; read-out: Minimum Inhibitory Concentration (MIC), Pa) was 62.5 ± 5.5 µg/mL and the “Minimum Bactericidal and Fungicidal Concentration (MBC, MFC), Ef” value [5] was 1.9 ± 0.1 µg/mL. For the same compound, the “Minimum Inhibitory Concentration (MIC), Ef” value [5] was 0.9 ± 0.06 µg/mL, the MBC ([6]; read-out: Minimum Bactericidal and Fungicidal Concentration (MBC, MFC), Bc) was 62.5 ± 5.3 µg/mL and the MIC ([6]; read-out: Minimum Inhibitory Concentration (MIC), Bc) was 1.9 ± 0.01 µg/mL. It also gave an MBC ([7]; read-out: Minimum Bactericidal and Fungicidal Concentration (MBC, MFC), Sa) of 0.5 ± 0.03 µg/mL and an MIC ([7]; read-out: Minimum Inhibitory Concentration (MIC), Sa) of 0.5 ± 0.03 µg/mL.
